Type in all cases: in vivo, mouse
Assay [1] has as its system db/^+m mice. Description: Food intake amount and body weight, 5 week-continuous oral administration, non-obese db/+m mice. The following applies: (±)-baclofen 2.7 mg/dl in drinking water, 5 weeks. On the procedure:
(§1) 5 week-old male C57BL/KsJ-db/^+m mice (db/^+m mice: body weight 19 to 23 g, Japan SLC, Inc.) were purchased and individually fed in tip cages. To the db/^+m mice, normal pellet diet (CE-2) was administered under free water intake and free food intake. A body weight and a food intake amount over 24 hours were measured every day from the start of feeding. On day 3 after the start of feeding, blood was taken from an orbit after 6 hour-fasting and a blood glucose level and a blood insulin concentration were measured. The db/^+m mice were divided into two groups (10 mice per each group) so that a body weight, a 24 hour-food intake amount, a blood glucose level, and a blood insulin concentration were equal, and defined to be a control group and a baclofen treated group. After division into the groups, from day 5 after the start of feeding, (±)-baclofen was dissolved in drinking water and 5 week-continuous oral administration was started in the baclofen treated group. (±)-baclofen was dissolved in drinking water at a concentration of 2.7 mg/dl used in the high concentration treated group in the experiment of db/db mice. A food intake amount and a body weight of the db/^+m mice were measured over time, and a rectal temperature was measured 5 weeks after the start of the administration. Blood was taken after the 5-week administration of (±)-baclofen, and the db/^+m mice were sacrificed by cervical luxation.
5 week-old male C57BL/KsJ-db/db mice (db/db mice: body weight 19 to 25 g, Japan SLC, Inc.) were purchased and individually fed in tip cages. Normal pellet diet (CE-2) was administered to the db/db mice under free water intake and free food intake. A body weight and a food intake amount over 24 hours were measured every day from the start of feeding. On day 3 after the start of feeding, blood was taken from an orbit after 6 hour-fasting and a blood glucose level and a blood insulin concentration were measured. The db/db mice were divided into three groups (10 mice per each group) so that a body weight, a 24 hour-food intake amount, a blood glucose level, and a blood insulin concentration were equal and defined to be a control group, an SKF97541 treated group and a 3-APPA treated group. SKF97541 and 3-APPA were dissolved in drinking water at respective concentrations of 10×10^−6 M and 100×10^−6 M, and continuously orally administered for 5 weeks, and a food intake amount and a body weight were measured over time during the administration period. SKF97541 (10×10^−6 M) or 3-APPA (100×10^−6M) was dissolved in drinking water and orally administered also to db/^+m mice, and a food intake amount and a body weight were measured over time in the same manner.

In assay [2] the test system is db/^+m mice. Description: Rectal temperature, db/+m mice. The following applies: (±)-baclofen 2.7 mg/dl in drinking water for 5 weeks. How it is done: as §1, with “After division into the groups, from day 5 after the start of feeding, (±)-baclofen was dissolved in drinking water and 5 week-continuous oral administration was started in the baclofen treated group. (±)-baclofen was dissolved in drinking water at a concentration of 2.7 mg/dl used in the high concentration treated group in the experiment of db/db mice.” left out, “Blood was taken after the 5-week administration of (±)-baclofen, and the db/^+m mice were sacrificed by cervical luxation.” left out
R-baclofen and S-baclofen were administered to db/db/mice and (±)-baclofen was administered to db/^+m mice respectively for 5 weeks, and rectal temperatures were then continuously measured for 3 days at 20 o'clock immediately before the dark period when feed intake was started in the mice. […] That is, the rectal temperatures were measured by using a digital thermistor (manufactured by NATSUME SEISAKUSHO CO., LTD.).

The test system of a further assay is DIO mice. The experiment in a line: White adipose tissue weights and fat cell size, DIO mice. The following applies: (±)-baclofen 5 mg/kg/day oral 5 weeks. On the procedure: (±)-baclofen (5 mg/kg/day) was orally administered to DIO mice for 5 weeks according to the above described method, and then, blood was taken from an orbit after 6 hour-fasting, and a plasma leptin concentration and a plasma adiponectin concentration were measured. The DIO mice were sacrificed by cervical luxation after the end of the 5-week administration, and then epididymal white adipose tissues and subcutaneous white adipose tissues were surgically removed, and after measuring the weights, they were fixed in 4% formaldehyde. The epididymal white adipose tissues were cut out to prepare a section with a thickness of 8 μm and subjected to Hematoxylin-Eosin stain (H-E stain) and a form (size) of a fat cell was examined by using an image analysis system, Neurolucida (MicroBrightField Japan, Inc.).

This note sets out measurements from patent publication US20100197789A1, “ANTI-OBESITY AGENT AND USE THEREOF” (National University Corporation Nagoya University, priority 2006, published 2010).

As for `NCC(CC(=O)O)c1ccc(Cl)cc1` (racemic) [(±)-baclofen, (RS)-4-amino-3-(4-chlorophenyl)butanoic acid], in the assay on db/^+m mice [1], the body weight entry is reported as “did not give significant effects” and the food intake amount result is given as “did not give significant effects”. The rectal temperature result in the assay on db/^+m mice [2] is given as “did not give a significant effect”. For the same compound, in the assay with DIO mice, the “weight of epididymal white adipose tissues” value is given as “significantly decreased” and the “weight of subcutaneous white adipose tissues” value was “significantly decreased”. Further, the “size of a fat cell in the epididymal white adipose tissues” value in the assay with DIO mice (H-E stain) is “decreased”.
